# Test results reported in ChEMBL document CHEMBL1145703, “Flavonol and chalcone ester glycosides from Bidens leucantha” (J Nat Prod, 1997).
# Activity calls are given as the source filed them. No cut-off for these calls is given here.
# Assays:
# [1] = system: Human immunodeficiency virus 1; test: Antiviral activity against HIV1 MN infection in human C8166 cells after 2 days by syncitium-forming assay; format: functional, organism-based
# [2] = Cytotoxicity against human C8166 cells by XTT-formazan method; format: cell-based; details: read-out: TC50 (the source's name)
# [3] = Selectivity index, ratio of EC50 for HIV1 MN infection in human C8166 cells to TC50 for human C8166 cells; format: functional
# [4] = system: Human immunodeficiency virus 1; test: Antiviral activity against HIV1 MN infected in human C8166 cells assessed as reduction in Ag gp120 production by ELISA; format: functional, organism-based; details: Human immunodeficiency virus 1, MN
# C8166 = test: Cytotoxicity against human C8166 cells at 250 ug/ml by XTT-formazan method; format: cell-based
SMILES,Activity [1],CC50 [2] [µg/mL],Selectivity Index [3],EC50 [4] [µg/mL],Activity (C8166)
COc1ccc(-c2oc3cc(O[C@@H]4O[C@H](CO[C@@H]5O[C@@H](C)[C@H](O)[C@@H](O)[C@H]5O[C@@H]5O[C@@H](C)[C@H](O)[C@@H](O)[C@H]5O)[C@@H](O)[C@H](O)[C@H]4O)cc(O)c3c(=O)c2OC)cc1O,inactive,–,–,–,–
O=C(/C=C/c1ccc(O)cc1)OC[C@H]1O[C@@H](Oc2ccc(C(=O)/C=C/c3ccc(O)cc3)c(O)c2O)[C@H](O)[C@@H](O)[C@@H]1O,–,250,12.5,50,–
CC(=O)OC[C@H]1O[C@@H](Oc2ccc(C(=O)/C=C/c3ccc(O)c(O)c3)c(O)c2O)[C@H](O)[C@@H](OC(C)=O)[C@@H]1OC(C)=O,–,–,12.5,20,Non-toxic
COc1c(-c2ccc(O)c(O)c2)oc2cc(O[C@@H]3O[C@H](CO[C@@H]4O[C@@H](C)[C@H](O)[C@@H](O)[C@H]4O)[C@@H](O)[C@H](O)[C@H]3O)cc(O)c2c1=O,inactive,–,–,–,–
COc1ccc(-c2oc3cc(O[C@@H]4O[C@H](CO[C@@H]5O[C@@H](C)[C@H](O)[C@@H](O)[C@H]5O)[C@@H](O)[C@H](O)[C@H]4O)cc(O)c3c(=O)c2OC)cc1O,inactive,–,–,–,–
CC(=O)O[C@H]1[C@H](O)[C@@H](O)[C@H](Oc2ccc(C(=O)/C=C/c3ccc(O)c(O)c3)c(O)c2O)O[C@@H]1COC(=O)/C=C/c1ccc(O)cc1,–,100,>10,10,–
COc1ccc(-c2oc3cc(O[C@@H]4O[C@H](CO[C@@H]5O[C@@H](C)[C@H](O)[C@@H](O)[C@H]5O)[C@@H](O)[C@H](O)[C@H]4O[C@@H]4O[C@H](CO)[C@@H](O)[C@H](O)[C@H]4O)cc(O)c3c(=O)c2OC)cc1O,inactive,–,–,–,–
